Experimental data as given in ChEMBL document CHEMBL4043155, “Development of helix-stabilized antimicrobial peptides composed of lysine and hydrophobic α,α-disubstituted α-amino acid residues” (2017).
Converted amounts (≈) assume the structure as drawn. Where a SMILES comes first, the peptide text is derived from it. [ ]: non-standard residue; d: D form. Ac6c = NC1(C(=O)O)CCCCC1; Ac5c = NC1(C(=O)O)CCCC1

How the values were obtained:
Format in all cases: functional
[1] = system: Pseudomonas aeruginosa; test: Antimicrobial activity against Pseudomonas aeruginosa NBRC 13275 after 16 hrs by microbroth dilution method; conditions: NBRC 13275, 16 h
[2] = system: Escherichia coli; test: Antimicrobial activity against Escherichia coli NBRC 3972 after 16 hrs by microbroth dilution method; conditions: NBRC 3972, 16 h
[3] = system: Staphylococcus aureus; test: Antimicrobial activity against Staphylococcus aureus NBRC 13276 after 16 hrs by microbroth dilution method; conditions: NBRC 13276, 16 h

MIC [1] [µM]	MIC [2] [µM]	MIC [3] [µM]	Compound
> 800	> 800	> 800	Ac-KKGKKGKKG-NH2
12.5	50	200	Ac-GIGKFLHSAKKFGKAFVGEIMNS-NH2
> 800	> 800	> 800	Ac-KKAKKAKKA-NH2
400 (≈ 465 µg/mL)	50 (≈ 58.1 µg/mL)	> 800	CC(=O)N[C@@H](CCCCN)C(=O)N[C@@H](CCCCN)C(=O)NC1(C(=O)N[C@@H](CCCCN)C(=O)N[C@@H](CCCCN)C(=O)NC2(C(=O)N[C@@H](CCCCN)C(=O)N[C@@H](CCCCN)C(=O)NC3(C(N)=O)CCCC3)CCCC2)CCCC1 (Ac-KK[Ac5c]KK[Ac5c]KK[Ac5c]-NH2)
> 800	> 800	> 800	CC(=O)NC(CCCCN)C(=O)NC(CCCCN)C(=O)NC(C)(C)C(=O)NC(CCCCN)C(=O)NC(CCCCN)C(=O)NC(C)(C)C(=O)NC(CCCCN)C(=O)NC(CCCCN)C(=O)NC(C)(C)C(N)=O (racemic)
> 800	400 (≈ 433 µg/mL)	> 800	CC(=O)N[C@@H](CCCCN)C(=O)N[C@@H](CCCCN)C(=O)NC(C)(C)C(=O)N[C@@H](CCCCN)C(=O)N[C@@H](CCCCN)C(=O)NC(C)(C)C(=O)N[C@@H](CCCCN)C(=O)N[C@@H](CCCCN)C(=O)NC(C)(C)C(N)=O
> 800	> 800	> 800	CC(=O)N[C@H](CCCCN)C(=O)N[C@H](CCCCN)C(=O)NC(C)(C)C(=O)N[C@H](CCCCN)C(=O)N[C@H](CCCCN)C(=O)NC(C)(C)C(=O)N[C@H](CCCCN)C(=O)N[C@H](CCCCN)C(=O)NC(C)(C)C(N)=O
> 800	> 800	> 800	CC(=O)N[C@@H](CCCCN)C(=O)N[C@H](CCCCN)C(=O)NC(C)(C)C(=O)N[C@@H](CCCCN)C(=O)N[C@H](CCCCN)C(=O)NC(C)(C)C(=O)N[C@@H](CCCCN)C(=O)N[C@H](CCCCN)C(=O)NC(C)(C)C(N)=O
50 (≈ 60.2 µg/mL)	25 (≈ 30.1 µg/mL)	> 800	CC(=O)N[C@@H](CCCCN)C(=O)N[C@@H](CCCCN)C(=O)NC1(C(=O)N[C@@H](CCCCN)C(=O)N[C@@H](CCCCN)C(=O)NC2(C(=O)N[C@@H](CCCCN)C(=O)N[C@@H](CCCCN)C(=O)NC3(C(N)=O)CCCCC3)CCCCC2)CCCCC1 (Ac-KK[Ac6c]KK[Ac6c]KK[Ac6c]-NH2)
